Data as given in ChEMBL document CHEMBL1201862, “PubChem BioAssay data set” (2004).
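A five-concentration, 48-hour dose response in 96-well plates underlies each endpoint, interpolated linearly between surrounding concentrations. Here, GI50 denotes the concentration required for 50% inhibition of growth.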 Active and inactive are the calls of the source. Cut-off read from the data, not from the text of the source: active = GI50 up to about 1.1 µM and inactive = higher.

Columns and labels:
Assay in all cases: DTP human tumour cell line panel, 48 h
[1] = system: A498
[2] = system: EKVX
[3] = system: HT-29
[4] = system: Hs-578T
[5] = system: IGROV-1
[6] = system: K562
[7] = system: M14
[8] = system: MDA-MB-231
[9] = system: MDA-MB-435
[10] = system: Malme-3M
[11] = system: NCI-H226
[12] = system: NCI-H23
[13] = system: NCI-H460
[14] = system: RXF 393
[15] = system: SW-620
[16] = system: UACC-257
[17] = system: COLO 205
[18] = system: SK-MEL-2
[19] = system: SK-OV-3

Compound	GI50 [1]	GI50 [2]	GI50 [3]	GI50 [4]	GI50 [5]	GI50 [6]	GI50 [7]	GI50 [8]	GI50 [9]	GI50 [10]	GI50 [11]	GI50 [12]	GI50 [13]	GI50 [14]	GI50 [15]	GI50 [16]	GI50 [17]	GI50 [18]	GI50 [19]
O=C(c1ccc([N+](=O)[O-])cc1)N1CCCC1	> 100 µM (inactive)	> 100 µM (inactive)	> 100 µM (inactive)	> 100 µM (inactive)	> 100 µM (inactive)	> 100 µM (inactive)	> 100 µM (inactive)	> 100 µM (inactive)	> 100 µM (inactive)	> 100 µM (inactive)	> 100 µM (inactive)	> 100 µM (inactive)	> 100 µM (inactive)	> 100 µM (inactive)	> 100 µM (inactive)	> 100 µM (inactive)	–	–	–
C=C(CCOC)CCC1CCCCC(=C)[C@H]1O (stereo partly specified)	> 100 µM (inactive)	> 100 µM (inactive)	> 100 µM (inactive)	> 100 µM (inactive)	> 100 µM (inactive)	> 100 µM (inactive)	> 100 µM (inactive)	> 100 µM (inactive)	> 100 µM (inactive)	–	> 100 µM (inactive)	> 100 µM (inactive)	> 100 µM (inactive)	–	> 100 µM (inactive)	> 100 µM (inactive)	> 100 µM (inactive)	> 100 µM (inactive)	> 100 µM (inactive)
Cc1nc2ccc(Cl)cc2c2c1CCO2	71 µM (inactive)	17.1 µM (inactive)	95.1 µM (inactive)	> 100 µM (inactive)	56.8 µM (inactive)	> 100 µM (inactive)	–	43.5 µM (inactive)	> 100 µM (inactive)	> 100 µM (inactive)	94.4 µM (inactive)	> 100 µM (inactive)	54.2 µM (inactive)	24.4 µM (inactive)	> 100 µM (inactive)	> 100 µM (inactive)	83.9 µM (inactive)	–	–
CC1=C(O)C(=O)C2=C(C1=O)[C@@H]([C@@H](C)C/C=C/C(C)(C)O)CC[C@@H]2C	> 100 µM (inactive)	–	69.3 µM (inactive)	48.6 µM (inactive)	69.5 µM (inactive)	41.1 µM (inactive)	61 µM (inactive)	> 100 µM (inactive)	43.2 µM (inactive)	–	74.5 µM (inactive)	49.2 µM (inactive)	55.5 µM (inactive)	–	77.4 µM (inactive)	61.8 µM (inactive)	> 100 µM (inactive)	39.5 µM (inactive)	> 100 µM (inactive)
CC1CCCOc2ccc(cc2)/C=N\c2ccc(cc2)CCc2ccc(cc2)/N=C\c2ccc(cc2)OCCC1	> 100 µM (inactive)	> 100 µM (inactive)	> 100 µM (inactive)	> 100 µM (inactive)	> 100 µM (inactive)	> 100 µM (inactive)	> 100 µM (inactive)	> 100 µM (inactive)	> 100 µM (inactive)	> 100 µM (inactive)	> 100 µM (inactive)	> 100 µM (inactive)	> 100 µM (inactive)	–	> 100 µM (inactive)	> 100 µM (inactive)	> 100 µM (inactive)	> 100 µM (inactive)	–
Cc1cc(Nc2ccc(NS(C)(=O)=O)cc2)c2c(ccc3[nH]ccc32)n1	21.2 µM (inactive)	36 µM (inactive)	27.5 µM (inactive)	28.6 µM (inactive)	28.6 µM (inactive)	13.6 µM (inactive)	16.6 µM (inactive)	16.4 µM (inactive)	16.1 µM (inactive)	12.5 µM (inactive)	19.5 µM (inactive)	20.7 µM (inactive)	19.3 µM (inactive)	–	21.7 µM (inactive)	17.3 µM (inactive)	14.3 µM (inactive)	15.9 µM (inactive)	–
CC(C)(C)OC(=O)n1c(Cl)c(C=O)c2ccccc21	43.6 µM (inactive)	28 µM (inactive)	30.5 µM (inactive)	34.8 µM (inactive)	28.2 µM (inactive)	38.7 µM (inactive)	34.8 µM (inactive)	33.3 µM (inactive)	43.9 µM (inactive)	19.1 µM (inactive)	–	23.3 µM (inactive)	21.2 µM (inactive)	–	36.2 µM (inactive)	28.8 µM (inactive)	56.4 µM (inactive)	30.1 µM (inactive)	> 100 µM (inactive)
Cc1ccc2c(c1)C(=O)/C(=C\c1ccccc1)CCS2(=O)=O	19.7 µM (inactive)	22.1 µM (inactive)	9.06 µM (inactive)	15.8 µM (inactive)	9.68 µM (inactive)	2.32 µM (inactive)	19.8 µM (inactive)	12.7 µM (inactive)	10.8 µM (inactive)	10.7 µM (inactive)	15.7 µM (inactive)	12.7 µM (inactive)	9.12 µM (inactive)	–	15.5 µM (inactive)	12.3 µM (inactive)	17.4 µM (inactive)	18.6 µM (inactive)	15.9 µM (inactive)
Cc1ccc(S(=O)(=O)c2c(O)c3ccc(O)c(C)c3oc2=O)cc1	–	> 100 µM (inactive)	> 100 µM (inactive)	> 100 µM (inactive)	> 100 µM (inactive)	> 100 µM (inactive)	> 100 µM (inactive)	> 100 µM (inactive)	> 100 µM (inactive)	> 100 µM (inactive)	> 100 µM (inactive)	> 100 µM (inactive)	> 100 µM (inactive)	> 100 µM (inactive)	> 100 µM (inactive)	> 100 µM (inactive)	> 100 µM (inactive)	> 100 µM (inactive)	> 100 µM (inactive)
CC(=O)Nc1cc2cc(NS(=O)(=O)c3cc(C(F)(F)F)cc(C(F)(F)F)c3)ccc2oc1=O	> 100 µM (inactive)	> 100 µM (inactive)	> 100 µM (inactive)	> 100 µM (inactive)	> 100 µM (inactive)	> 100 µM (inactive)	> 100 µM (inactive)	> 100 µM (inactive)	> 100 µM (inactive)	> 100 µM (inactive)	> 100 µM (inactive)	> 100 µM (inactive)	> 100 µM (inactive)	0.016 µM (active)	> 100 µM (inactive)	> 100 µM (inactive)	> 100 µM (inactive)	> 100 µM (inactive)	–
NS(=O)(=O)c1ccc(NS(=O)(=O)c2ccc(NC(=O)N(c3ccccc3)c3ccccc3)cc2)cc1	> 100 µM (inactive)	> 100 µM (inactive)	57.1 µM (inactive)	> 100 µM (inactive)	59 µM (inactive)	26.1 µM (inactive)	41.3 µM (inactive)	> 100 µM (inactive)	24.9 µM (inactive)	27.3 µM (inactive)	> 100 µM (inactive)	> 100 µM (inactive)	65.6 µM (inactive)	21.9 µM (inactive)	> 100 µM (inactive)	77.4 µM (inactive)	> 100 µM (inactive)	48.5 µM (inactive)	–
CNc1ccc2c(c1)Cc1ccccc1-2	20 µM (inactive)	12.7 µM (inactive)	30.3 µM (inactive)	33.3 µM (inactive)	34.5 µM (inactive)	31.1 µM (inactive)	34.1 µM (inactive)	55.8 µM (inactive)	28.3 µM (inactive)	37.9 µM (inactive)	78 µM (inactive)	75.2 µM (inactive)	32.5 µM (inactive)	34.8 µM (inactive)	53.6 µM (inactive)	61.1 µM (inactive)	38.7 µM (inactive)	35.4 µM (inactive)	–
